Experimental data taken from patent US20210163404A1, “NOVEL UREA COMPOUNDS AND BIOISOSTERES THEREOF AND THEIR USE FOR TREATING INFLAMMATION AND INFLAMMATION-RELATED PATHOLOGIES” (UNIVERSITÉ LAVAL, priority 2017, published 2021).

Experiments:
[1] = test system: HDFn neonatal dermal fibroblast cell line; assay: Antiproliferative activity (NCI procedure, sulforhodamine B), HDFn; type: cell-based, human; conditions: Homo sapiens, Fibroblast, unit inferred, tested 781 nM to 100 μM, 48 h
Procedure: (§1) The antiproliferative activity of compounds 3a-b, 4a-e, 5a-e and 6a-e was subsequently evaluated using the human HT-29 colon adenocarcinoma and the A549 adenocarcinoma alveolar epithelial cancer cell lines, the HaCaT spontaneously transformed aneuploid immortal keratinocyte cell line and the HDFn neonatal dermal fibroblast cell line (Table 2). Cell growth inhibition was assessed according to the NCI/NIH Developmental Therapeutics Program.
(§2) The antiproliferative activity assay of all compounds was assessed using the procedure recommended by the National Cancer Institute for its drug screening program with minor modifications. Briefly, 96-well microtiter plates were seeded with 75 μL of a suspension of either HaCaT (5×10^3), HT-29 (3.0×10^3), A549 (3.0×10^3) or HDFn (3×10^3) cells per well in DMEM and incubated for 24 h at 37° C. in a moisture-saturated atmosphere containing 5% CO2. Compounds freshly solubilized in DMSO (40 mM) were diluted in fresh DMEM, and 75 μL aliquots containing serially diluted concentrations of the compound were added. Final compound concentrations ranged from 100 μM to 781 nM. DMSO was maintained at a concentration of <0.5% (v/v) to avoid any related cytotoxicity. Plates were subsequently incubated for 48 h. Cell growth was then stopped by the addition of cold trichloroacetic acid to the wells (10% w/v, final concentration), followed by a 1 h incubation period at 4° C. The plates were washed 4-times with water. A sulforhodamine B solution (75 μL; 0.1% w/v) in acetic acid (1%) was subsequently added to each well and the plates incubated over a 15 min period while at room temperature. After staining, any unbound dye was removed by washing 4-times with an acetic acid solution (1%). Bound dye was solubilized in 20 mM Tris base and the absorbance was measured at an optimal wavelength (530-568 nm) using a μQuant® Universal microplate spectrophotometer (BioTek, Winooski, Vt.). The measurements for treated cells were compared with measurements from control cell plates fixed on treatment day and the percentage of cell growth inhibition was calculated for each drug. The experiments were performed at least twice in triplicate. The assays were considered valid when the coefficient of variation for a given set of conditions and within the same experiment was <10%.

[2] = test system: HaCaT keratinocyte cell line; assay: Antiproliferative activity (NCI procedure, sulforhodamine B), HaCaT; type: cell-based, human; conditions: Homo sapiens, HaCaT, unit inferred, tested 781 nM to 100 μM, 48 h
Procedure: as §1, §2

[3] = test system: HT-29 colon adenocarcinoma cells; assay: Antiproliferative activity (NCI procedure, sulforhodamine B), HT-29; type: cell-based, human; conditions: Homo sapiens, HT-29, unit inferred, tested 781 nM to 100 μM, 48 h
Procedure: as §1, §2

[4] = test system: A549 adenocarcinoma alveolar epithelial cancer cells; assay: Antiproliferative activity (NCI procedure, sulforhodamine B), A549; type: cell-based, human; conditions: Homo sapiens, A549, unit inferred, tested 781 nM to 100 μM, 48 h
Procedure: as §1, §2

Compound	IC50 ([1]; Table 5) [µM]	IC50 ([2]; Table 5) [µM]	melting point [°C]	IC50 ([3]; Table 5) [µM]	IC50 ([4]; Table 5) [µM]	IC50 ([1]; Table 6) [µM]	IC50 ([2]; Table 6) [µM]	IC50 ([3]; Table 6) [µM]	IC50 ([4]; Table 6) [µM]	IC50 ([1]; Table 8) [µM]	IC50 ([2]; Table 8) [µM]	IC50 ([3]; Table 8) [µM]	IC50 ([4]; Table 8) [µM]
CC(C)NC(=O)Nc1cccc(C(C)(C)C)c1 [Compound 10]	92.4	> 100	146 to 149	85.2	96.8	–	–	–	–	–	–	–	–
CC(C)(C)NC(=O)Nc1cccc(C(C)(C)C)c1 [Compound 11]	13.1	46.5	161 to 170	34.9	36.7	–	–	–	–	–	–	–	–
CCCNC(=O)Nc1cccc(C(C)(C)C)c1 [Compound 12]	81.5	> 100	138 to 141	> 100	> 100	–	–	–	–	–	–	–	–
CC(C)NC(=O)Nc1ccc(C2CCCCC2)cc1 [Compound 13]	59.1	> 100	163 to 170	56.9	60.8	–	–	–	–	–	–	–	–
CC(C)(C)NC(=O)Nc1ccc(C2CCCCC2)cc1 [Compound 14]	17.2	35.4	182 to 189	25.5	18.5	–	–	–	–	–	–	–	–
CCCNC(=O)Nc1ccc(C2CCCCC2)cc1 [Compound 15]	59.1	> 100	166 to 168	> 100	> 100	–	–	–	–	–	–	–	–
CC(C)NC(=O)Nc1cccc(C2CCCCC2)c1 [Compound 16]	30.5	> 100	178 to 181	> 100	> 100	–	–	–	–	–	–	–	–
CC(C)(C)NC(=O)Nc1cccc(C2CCCCC2)c1 [Compound 17]	16.3	87.9	195 to 203	58.3	44.1	–	–	–	–	–	–	–	–
CCCNC(=O)Nc1cccc(C2CCCCC2)c1 [Compound 18]	23	32	131 to 134	24.1	21	–	–	–	–	–	–	–	–
CCNC(=O)Nc1cccc(C2CCCCC2)c1 [Compound 66]	–	–	141 to 144	–	–	31	37	31	58	–	–	–	–
O=C(Nc1cccc(C2CCCCC2)c1)NC1CC1 [Compound 67]	–	–	138 to 144	–	–	25	17	26	37	–	–	–	–
O=C(NCC1CCC1)Nc1cccc(C2CCCCC2)c1 [Compound 68]	–	–	115 to 120	–	–	12	3.7	5.6	8	–	–	–	–
O=C(Nc1cccc(C2CCCCC2)c1)NC1CCCC1 [Compound 69]	–	–	132 to 137	–	–	7.6	4	8.9	12	–	–	–	–
S=C(NCC1CCC1)Nc1ccc(C2CCCCC2)cc1 [Compound 88]	–	–	144 to 152	–	–	–	–	–	–	15.7	32.5	20.4	15.3
S=C(Nc1ccc(C2CCCCC2)cc1)NC1CCCC1 [Compound 89]	–	–	146 to 152	–	–	–	–	–	–	14.6	34.9	21.6	20
CC(C)(C)c1cccc(NC(=S)NCC2CCC2)c1 [Compound 90]	–	–	105 to 111	–	–	–	–	–	–	18.2	34.3	20.2	17.5
CC(C)(C)c1cccc(NC(=S)NC2CCCC2)c1 [Compound 91]	–	–	170 to 180	–	–	–	–	–	–	16.3	31.8	21	19.4
S=C(NCC1CCC1)Nc1ccc(I)cc1 [Compound 92]	–	–	98 to 108	–	–	–	–	–	–	24.2	48.2	27.2	26.2
S=C(Nc1ccc(C2CCCCC2)cc1)NC1CC1 [Compound 93]	–	–	157 to 165	–	–	–	–	–	–	84	84.7	30.8	20.8
CCNC(=S)Nc1ccc(C(C)(C)C)cc1 [Compound 94]	–	–	109 to 115	–	–	–	–	–	–	94	> 100	92	71.1
CC(C)(C)c1ccc(NC(=S)NC2CC2)cc1 [Compound 95]	–	–	119 to 143	–	–	–	–	–	–	60	94.5	64.4	57.9
CC(C)(C)c1ccc(NC(=S)NCC2CCC2)cc1 [Compound 96]	–	–	129 to 146	–	–	–	–	–	–	> 100	> 100	44	23.3
CC(C)(C)c1ccc(NC(=S)NC2CCCC2)cc1 [Compound 97]	–	–	142 to 154	–	–	–	–	–	–	22.6	40	28.8	26.2
S=C(Nc1cccc(I)c1)NC1CCCC1 [Compound 98]	–	–	136 to 147	–	–	–	–	–	–	16.4	32.8	23.4	21.9
S=C(NCC1CCC1)Nc1cccc(I)c1 [Compound 99]	–	–	136 to 147	–	–	–	–	–	–	19.4	35.5	27	26.2
CC(C)(C)c1cccc(NC(=S)NC2CC2)c1 [Compound 100]	–	–	125 to 140	–	–	–	–	–	–	> 100	> 100	75.7	70
S=C(Nc1ccc(I)cc1)NC1CC1 [Compound 101]	–	–	166 to 180	–	–	–	–	–	–	> 100	> 100	63.3	65.1
S=C(Nc1ccc(I)cc1)NC1CCCC1 [Compound 102]	–	–	154 to 162	–	–	–	–	–	–	18.6	39.1	25.1	25.3
